Source: patent publication US7629341B2, “Human ADAM-10 inhibitors” (Symphony Evolution, Inc., priority 2003, dated 2009)

How the values were obtained:
ADAM-10 = biological target: T1, ADAM-10 (UniProt O14672); assay: ADAM-10 enzyme assay, cleavage of a fluorogenic 10-residue peptide; assay type: biochemical, mouse or human (mADAM-10 or hADAM-10); conditions: in vitro;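 note: mouse or human ADAM-10 at 5 nM active enzyme, pH 8.0 HEPES buffer with CaCl2 and NP-40, compounds titrated 100 µM down to 0.5 nM, fluorescence read after 16 h at room temperature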
T1 sequence (O14672 1-748): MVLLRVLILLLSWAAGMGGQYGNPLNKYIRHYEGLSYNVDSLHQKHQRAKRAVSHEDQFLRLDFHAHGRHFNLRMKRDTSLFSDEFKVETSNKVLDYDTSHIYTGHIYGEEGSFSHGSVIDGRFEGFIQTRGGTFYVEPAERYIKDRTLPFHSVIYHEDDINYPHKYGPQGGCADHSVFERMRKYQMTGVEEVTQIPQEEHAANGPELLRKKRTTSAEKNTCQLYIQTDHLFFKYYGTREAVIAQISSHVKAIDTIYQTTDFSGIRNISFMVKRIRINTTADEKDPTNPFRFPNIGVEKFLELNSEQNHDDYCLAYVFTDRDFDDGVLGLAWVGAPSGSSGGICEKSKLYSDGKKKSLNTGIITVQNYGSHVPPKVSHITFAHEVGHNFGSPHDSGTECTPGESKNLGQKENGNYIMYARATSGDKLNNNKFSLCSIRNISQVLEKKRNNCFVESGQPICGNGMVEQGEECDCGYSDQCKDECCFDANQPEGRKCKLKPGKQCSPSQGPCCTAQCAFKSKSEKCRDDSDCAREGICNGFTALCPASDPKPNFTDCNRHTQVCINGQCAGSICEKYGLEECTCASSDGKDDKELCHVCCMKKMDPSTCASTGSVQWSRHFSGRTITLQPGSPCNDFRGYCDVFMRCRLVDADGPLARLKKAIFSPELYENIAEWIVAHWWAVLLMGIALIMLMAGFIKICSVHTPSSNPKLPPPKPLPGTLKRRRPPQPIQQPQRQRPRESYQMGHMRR
Method: mADAM-10 or hADAM-10 activity was measured as the ability to cleave a 10-residue peptide (DABCYL-Leu-Leu-Ala-Gln-Lys-*-LeuArg-Ser-Ser-Arg-EDANS). […] Enzyme was diluted to a final active concentration of 5 nM in Buffer A (50 mM HEPES 8.0, 100 mM NaCl, 1 mM CaCl2 and 0.01% NP-40). Serial dilutions for compounds were performed ranging from 100 μM to 0.5 nM using a Beckman Biomek 2000 in polypropylene plates (Greiner). […] This reaction was incubated for 16 hr at RT and fluorescence was read using identical conditions.

MMP-13 (collagenase-3) = MMP-13 (collagenase-3) (Homo sapiens, UniProt P45452); assay: In vitro metalloprotease inhibition, MMP-13; assay type: biochemical
[1] = biological target: T2, MMP-1 (Fibroblast collagenase) (Homo sapiens, UniProt P03956); assay: In vitro metalloprotease inhibition, MMP-1; assay type: biochemical
T2 sequence (P03956 100-469): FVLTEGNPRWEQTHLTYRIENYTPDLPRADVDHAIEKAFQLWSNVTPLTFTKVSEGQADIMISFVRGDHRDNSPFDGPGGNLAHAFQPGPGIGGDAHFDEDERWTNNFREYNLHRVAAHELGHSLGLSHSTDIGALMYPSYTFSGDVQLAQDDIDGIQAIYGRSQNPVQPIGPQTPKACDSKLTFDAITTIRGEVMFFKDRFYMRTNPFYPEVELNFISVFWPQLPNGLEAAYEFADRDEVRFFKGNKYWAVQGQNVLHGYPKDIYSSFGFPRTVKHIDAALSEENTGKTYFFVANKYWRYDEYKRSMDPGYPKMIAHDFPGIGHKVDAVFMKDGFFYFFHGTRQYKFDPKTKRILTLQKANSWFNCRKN
Text: (§1) Blank cells indicate lack of data only.

[2] = biological target: T3, MMP-2 (72 kDa gelatinase, gelatinase A) (Homo sapiens, UniProt P08253); assay: In vitro metalloprotease inhibition, MMP-2; assay type: biochemical
T3 sequence (P08253 110-660): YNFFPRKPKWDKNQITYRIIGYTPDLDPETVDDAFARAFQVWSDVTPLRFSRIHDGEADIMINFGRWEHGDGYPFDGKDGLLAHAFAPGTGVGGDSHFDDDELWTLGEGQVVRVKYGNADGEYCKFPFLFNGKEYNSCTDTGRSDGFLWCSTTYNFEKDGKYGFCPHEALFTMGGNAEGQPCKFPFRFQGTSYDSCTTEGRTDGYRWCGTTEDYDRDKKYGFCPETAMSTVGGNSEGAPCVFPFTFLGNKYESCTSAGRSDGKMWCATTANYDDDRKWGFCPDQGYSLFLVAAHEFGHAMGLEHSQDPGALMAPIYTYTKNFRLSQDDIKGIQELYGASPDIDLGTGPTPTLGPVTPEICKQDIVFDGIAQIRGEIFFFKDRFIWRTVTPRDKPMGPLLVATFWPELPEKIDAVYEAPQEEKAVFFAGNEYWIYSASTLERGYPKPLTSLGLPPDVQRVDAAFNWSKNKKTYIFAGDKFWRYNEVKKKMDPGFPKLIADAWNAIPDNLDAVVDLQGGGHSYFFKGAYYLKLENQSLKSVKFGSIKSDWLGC

MMP-3 (Stromelysin-1) = MMP-3 (Stromelysin-1) (Homo sapiens, UniProt P08254); assay: In vitro metalloprotease inhibition, MMP-3; assay type: biochemical
Text: as §1

Sequence of MMP-3 (Stromelysin-1) (P08254 100-477, species assumed): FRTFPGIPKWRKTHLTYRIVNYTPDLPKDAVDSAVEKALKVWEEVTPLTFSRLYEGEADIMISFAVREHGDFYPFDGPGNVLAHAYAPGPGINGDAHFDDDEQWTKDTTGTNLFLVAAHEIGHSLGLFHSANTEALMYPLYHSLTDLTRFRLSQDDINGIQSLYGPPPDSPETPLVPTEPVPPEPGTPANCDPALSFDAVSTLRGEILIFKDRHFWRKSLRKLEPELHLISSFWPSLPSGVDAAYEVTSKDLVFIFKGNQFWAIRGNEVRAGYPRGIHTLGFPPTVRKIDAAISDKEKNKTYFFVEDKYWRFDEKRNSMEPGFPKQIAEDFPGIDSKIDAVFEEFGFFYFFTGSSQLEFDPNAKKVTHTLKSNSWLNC

Row | SMILES | IC50 (ADAM-10) | IC50 (MMP-13 (collagenase-3)) | IC50 [1] | IC50 [2] | IC50 (MMP-3 (Stromelysin-1))
1 | O=C(NO)[C@H]1CN(C(=O)c2ccc(-c3ccccc3)cc2)CCN1S(=O)(=O)c1cc(F)c(Oc2ccc(Cl)cc2)c(F)c1 [Entry 51] | 0.05 to 1 µM | 0.05 to 1 µM | 1 to 20 µM | 0.05 to 1 µM | 1 to 20 µM
2 | O=C(NO)[C@H]1CN(S(=O)(=O)CCN2CCCCC2)CCN1S(=O)(=O)c1cc(F)c(Oc2ccc(Cl)cc2)c(F)c1 [Entry 53] | < 0.05 µM | < 0.05 µM | 0.05 to 1 µM | < 0.05 µM | 0.05 to 1 µM
3 | CN1CCN(CCS(=O)(=O)N2CCN(S(=O)(=O)c3cc(F)c(Oc4ccc(Cl)cc4)c(F)c3)[C@@H](C(=O)NO)C2)CC1 [Entry 55] | < 0.05 µM | < 0.05 µM | 1 to 20 µM | < 0.05 µM | 0.05 to 1 µM
4 | CCOC(=O)N1CCN(CCS(=O)(=O)N2CCN(S(=O)(=O)c3cc(F)c(Oc4ccc(Cl)cc4)c(F)c3)[C@@H](C(=O)NO)C2)CC1 [Entry 56] | < 0.05 µM | < 0.05 µM | 1 to 20 µM | < 0.05 µM | 0.05 to 1 µM
5 | CN(C)c1cccc2c(S(=O)(=O)N3CCN(S(=O)(=O)c4cc(F)c(Oc5ccc(Cl)cc5)c(F)c4)[C@@H](C(=O)NO)C3)cccc12 [Entry 60] | 0.05 to 1 µM | < 0.05 µM | > 20 µM | < 0.05 µM | 1 to 20 µM
6 | O=C(NO)[C@H]1CN(S(=O)(=O)Cc2cc(Cl)cc(Cl)c2)CCN1S(=O)(=O)c1cc(F)c(Oc2ccc(Cl)cc2)c(F)c1 [Entry 61] | 0.05 to 1 µM | 1 to 20 µM | > 20 µM | 1 to 20 µM | > 20 µM
7 | C=CCN1CCN(S(=O)(=O)c2cc(F)c(Oc3ccc(Cl)cc3)c(F)c2)[C@@H](C(=O)NO)C1 [Entry 62] | 0.05 to 1 µM | < 0.05 µM | > 20 µM | < 0.05 µM | 1 to 20 µM
8 | O=C(O)CN1CCN(S(=O)(=O)c2cc(F)c(Oc3ccc(Cl)cc3)c(F)c2)[C@@H](C(=O)NO)C1 [Entry 63] | 0.05 to 1 µM | 0.05 to 1 µM | > 20 µM | 0.05 to 1 µM | 1 to 20 µM

The next lines start with the values.

Row | IC50 (ADAM-10) | IC50 (MMP-13 (collagenase-3)) | IC50 [1] | IC50 [2] | IC50 (MMP-3 (Stromelysin-1)) | SMILES
9 | < 0.05 µM | < 0.05 µM | 1 to 20 µM | < 0.05 µM | 1 to 20 µM | O=C(NO)[C@H]1CN(C(=O)Cc2ccncc2)CCN1S(=O)(=O)c1cc(F)c(Oc2ccc(Cl)cc2)c(F)c1 [Entry 52]
10 | 0.05 to 1 µM | 0.05 to 1 µM | > 20 µM | 0.05 to 1 µM | 1 to 20 µM | O=C(NO)[C@H]1CN(S(=O)(=O)CCN2CCOCC2)CCN1S(=O)(=O)c1cc(F)c(Oc2ccc(Cl)cc2)c(F)c1 [Entry 57]
11 | < 0.05 µM | < 0.05 µM | 0.05 to 1 µM | < 0.05 µM | 0.05 to 1 µM | O=C(NO)[C@H]1CN(C(=O)N2CCOCC2)CCN1S(=O)(=O)c1ccc(-c2cccc(F)c2)nc1 [Entry 58]
12 | < 0.05 µM | < 0.05 µM | 0.05 to 1 µM | < 0.05 µM | < 0.05 µM | COCCOC(=O)N1CCN(S(=O)(=O)c2ccc(Oc3ccc4c(c3)CCCC4)nc2)[C@@H](C(=O)NO)C1 [Entry 64]
13 | 0.05 to 1 µM | < 0.05 µM | < 0.05 µM | < 0.05 µM | < 0.05 µM | COCCOC(=O)N1CCN(S(=O)(=O)c2ccc(Oc3ccc(F)cc3)nc2)[C@@H](C(=O)NO)C1 [Entry 65]
14 | < 0.05 µM | < 0.05 µM | 0.05 to 1 µM | < 0.05 µM | < 0.05 µM | COCCOC(=O)N1CCN(S(=O)(=O)c2ccc(-c3cccc(F)c3)nc2)[C@@H](C(=O)NO)C1 [Entry 66]
